According to paper PMC5442318, “Hundreds of dual-stage antimalarial molecules discovered by a functional gametocyte screen” (Nature Communications, 2017):
Blank lines part the entries; values can stand above or below the molecule they belong to.

Assays:
[1] = test system: P. falciparum stage V female gametocytes; assay: P. falciparum female gametocyte activation assay (Pf FGAA), 24 h or 48 h preincubation, Pfs25 expression readout; format: cell-based, Plasmodium falciparum NF54; conditions: P. falciparum female gametocytes; mean; read-out: Gametocytes mean Pf FGAA IC50
Method: P. falciparum NF54 (originally isolated from an imported malaria case in the Netherlands in the 1980s; BEI Resources, cat. no. MRA-1000) asexual-stage culture was performed as described by Trager and Jensen[37]. Cultures synchronized at the ring stage were used to start gametocyte cultures (day 0) at 1% parasitaemia and 4% haematocrit in 200 ml final volume using culture bottles (Nalgene 3110-42, Thermo Scientific). Complete culture medium (RPMI 1640 supplemented with 25 mM HEPES, 50 μg ml^−1 hypoxanthine, 2 g l^−1 NaHCO3 and 10% pooled human male type A+ serum) was totally replaced daily for 14 days without fresh erythrocyte addition. Human serum was obtained from Interstate Blood Bank, A^+ serotype; no aspirin 2 h before drawing and no antimalarials 2 weeks before drawing. To ensure a stable temperature at 37 °C, which is crucial for gametocyte production and maturation, pre-warmed medium and a slide warmer (XH-2001, Premiere) were used. Under these conditions, parasitaemia reaches a peak of asexual stages on days 4–5, and the first gametocytes are differentiated in culture on day 6. Sexual-stage development was monitored microscopically by Giemsa-stained thin blood smears at day 7 (mainly asexual stages and stages I to III gametocytes) and day 14 (stages IV and V gametocytes).
Cultures showing mainly stage V gametocytes were purified by differential sedimentation as previously reported. The gametocyte concentration was adjusted to plate 8,000 gametocytes per well (100 μl per well) in 384-well poly-D-lysine coated plates (781946, Greiner Bio-One) containing the compounds to test. […] Female gametocyte activation was then triggered by temperature drop and addition of xanthurenic acid (D120804, Sigma) as previously described. To detect female gametes, monoclonal anti-Pfs25 antibody[38] 4B7 (BEI Resources (formerly MR4), cat. no. MRA-315) conjugated to the Cy3 fluorochrome (GE Healthcare) was added to ookinete medium (RPMI 1640 supplemented with 25 mM HEPES, 50 μg ml^−1 hypoxanthine, 2 g l^−1 NaHCO3, 100 μM xanthurenic acid and 20% human serum) at a final concentration of 0.5 μg ml^−1. Activated cultures were then kept at 26 °C for 24 h protected from light, and image acquisition was performed in the Opera High-Content Screening System (PerkinElmer). Using × 10 air objective, five images per well were taken using 532 nm excitation. Images were analysed with a Columbus image data storage and analysis system (PerkinElmer) based on a script specifically designed for this assay that considers size, roundness and intensity of fluorescence of the female activated gametocytes.
Compounds were dissolved in 100% DMSO and dispensed in the 384-well plates using an Echo-CRS liquid handler. Compounds were tested in 2–3 independent experiments. […] Based on that, Z′ factor was calculated for each plate and only those ones with values higher than 0.4 were considered acceptable for data analysis.
Assay performance statistics, such as signal to background ratio, Z′ and robust 3 s.d. activity cut-off were calculated using templates in ActivityBase XE (IDBS, Guilford, Surrey, UK). Hit population analysis and visualization were conducted using Spotfire DecisionSite (Spotfire, Inc., Somerville, MA, USA). The pIC50 (−log IC50) values were obtained using the ActivityBase XE nonlinear regression function in the full curve analysis bundle.

HepG2 cells = assay: HepG2 cytotoxicity assay; format: cell-based; conditions: HepG2 cells; mean
Method: After incubation, plates and CellTiter-Glo Reagent (G7571, Promega) were equilibrated at room temperature for 30 min before proceeding to develop the luminescent signal. Using a Multidrop combi dispenser, 25 μl per well of the signal developer were added to the plates and after 10 min at room temperature for stabilization, plates were read on the ViewLux system (Perkin Elmer).

[2] = test system: P. falciparum asexual blood stages; conditions: TCAMS asexual blood stage data; ref 1 (Gamo, F. J. et al., Nature 465, 305-310, 2010); read-out: Pf Asexual blood stages XC50; cited from earlier work
[3] = test system: P. falciparum stages IV–V gametocytes; assay: Gametocytocidal ATP-depletion assay (gametocyte ATP bioluminescence); format: cell-based, Plasmodium falciparum
Method: In parallel, the set of confirmed hits from the Pf FGAA screen was cross-compared in the gametocyte ATP-depletion assay, at 2 μM single concentration (Supplementary Data 1). This assay monitors ATP levels as surrogate of gametocyte viability.
‘Viability' of mature gametocytes was determined using the gametocyte ATP bioluminiscence assay. Briefly, stages IV–V gametocyte cultures were double-purified by differential sedimentation followed by magnetic isolation. Then, parasites (50 μl per well containing 12,500 gametocytes) were added to compound pre-dispensed 384-well plates (781091, Greiner Bio-One) and incubated at 37 °C for 48 h (3% O2, 5% CO2 and 92% N2). BacTiter-Glo kit (G8231, Promega) was used to determine the ATP levels of ‘live' parasites according to the manufacturer's instructions. After reagent addition (50 μl per well), luminescence of the plates was measured using a microplate reader (HTS counter Victor, Wallac).

SMILES: Fc1ccc2nc(Nc3nc(-c4ccccn4)cs3)sc2c1 [TCMDC-125540]
IC50 [1]: 54.3 nM | HepG2 cells mean TOX50 (HepG2 cells): 58.31 µM | IC50 [2]: 560 nM | Gametocytes mean ATP inhibition at 2µM [3]: 71.05%

SMILES: Oc1c(C(Nc2ccccn2)c2ccc(Cl)cc2Cl)ccc2cccnc12 (centres unmarked) [TCMDC-125559]
IC50 [1]: 1140 nM | HepG2 cells mean TOX50 (HepG2 cells): 12.74 µM | IC50 [2]: 890 nM | Gametocytes mean ATP inhibition at 2µM [3]: 84.30%

SMILES: O=C(Nc1cc(C(F)(F)F)cc(C(F)(F)F)c1)Nc1ccc(Cl)c(Cl)c1 [TCMDC-125592]
IC50 [1]: 1430 nM | HepG2 cells mean TOX50 (HepG2 cells): 3.07 µM | IC50 [2]: 240 nM | Gametocytes mean ATP inhibition at 2µM [3]: -6.96%

SMILES: CCCC(N)C(=O)NC1CCN(c2c(F)c(N)c3c(=O)c(C(=O)O)cn4c3c2Oc2ccccc2-4)C1.Cl (centres unmarked) [TCMDC-125701]
IC50 [1]: 1140 nM | HepG2 cells mean TOX50 (HepG2 cells): 1.61 µM | IC50 [2]: 360 nM | Gametocytes mean ATP inhibition at 2µM [3]: 0.82%

SMILES: ON=C(c1nc2ccccc2[nH]1)c1nc2ccccc2[nH]1 [TCMDC-125758]
IC50 [1]: 330 nM | HepG2 cells mean TOX50 (HepG2 cells): 4.96 µM | IC50 [2]: 1090 nM | Gametocytes mean ATP inhibition at 2µM [3]: 89.28%

SMILES: c1ccc(-c2nc(NC3CCCCC3)cc(C3CC3)n2)nc1 [TCMDC-125825]
IC50 [1]: 160 nM | HepG2 cells mean TOX50 (HepG2 cells): 48.99 µM | IC50 [2]: 730 nM | Gametocytes mean ATP inhibition at 2µM [3]: 85.03%

SMILES: CC(C)(C)c1cc(NC2CC2)nc(-c2ccccn2)n1 [TCMDC-125826]
IC50 [1]: 120 nM | HepG2 cells mean TOX50 (HepG2 cells): >100 µM | IC50 [2]: 720 nM | Gametocytes mean ATP inhibition at 2µM [3]: 84.45%

SMILES: COc1ccc2nc3cc(Cl)ccc3c(N)c2c1.Cl [TCMDC-125835]
IC50 [1]: 670 nM | HepG2 cells mean TOX50 (HepG2 cells): 1.57 µM | IC50 [2]: 170 nM | Gametocytes mean ATP inhibition at 2µM [3]: 101.44%

SMILES: CCC1CN2CCc3cc(OC)c(OC)cc3C2CC1CC1NCCc2cc(OC)c(OC)cc21 (centres unmarked) [TCMDC-125849]
IC50 [1]: 1820 nM | HepG2 cells mean TOX50 (HepG2 cells): 2.24 µM | IC50 [2]: 150 nM | Gametocytes mean ATP inhibition at 2µM [3]: 60.00%

SMILES: CCC(CSC1CCCCC1)N(C)CCN(C)C(CC)CSC1CCCCC1.Cl (centres unmarked) [TCMDC-131456]
IC50 [1]: 1250 nM | HepG2 cells mean TOX50 (HepG2 cells): 0.0654 µM | IC50 [2]: 310 nM | Gametocytes mean ATP inhibition at 2µM [3]: 36.19%

SMILES: N=C(/N=C(/NCCCCCCN/C(=N\C(=N)Nc1ccc(Cl)cc1)N1CCCCC1)N1CCCCC1)Nc1ccc(Cl)cc1 [TCMDC-131811]
IC50 [1]: 7870 nM | HepG2 cells mean TOX50 (HepG2 cells): 44.23 µM | IC50 [2]: 260 nM | Gametocytes mean ATP inhibition at 2µM [3]: 49.82%

Continued, in another order:

IC50 [1]: 1260 nM
SMILES: COc1ccc(CCNCCCCCCNCCc2ccc(-c3ccccc3)cc2)cc1OC.Cl [TCMDC-131267]
HepG2 cells mean TOX50 (HepG2 cells): 6.90 µM | IC50 [2]: 960 nM | Gametocytes mean ATP inhibition at 2µM [3]: 51.20%

IC50 [1]: 10900 nM
SMILES: Br.Oc1ccc(CCNCCCCCCNCCc2ccc(-c3ccccc3)cc2)cc1O [TCMDC-131268]
HepG2 cells mean TOX50 (HepG2 cells): 13.18 µM | IC50 [2]: 600 nM | Gametocytes mean ATP inhibition at 2µM [3]: 64.17%

IC50 [1]: 580 nM
SMILES: COc1ccc(CCNCCCCCCNCCc2ccc(Cl)c3ccccc23)cc1OC.Cl [TCMDC-131270]
HepG2 cells mean TOX50 (HepG2 cells): 2.12 µM | IC50 [2]: 580 nM | Gametocytes mean ATP inhibition at 2µM [3]: 67.75%

IC50 [1]: 2380 nM
SMILES: Br.Oc1ccc(CCNCCCCCCNCCc2ccc(Cl)c3ccccc23)cc1O [TCMDC-131271]
HepG2 cells mean TOX50 (HepG2 cells): 11.22 µM | IC50 [2]: 720 nM | Gametocytes mean ATP inhibition at 2µM [3]: 14.57%

IC50 [1]: 830 nM
SMILES: COc1ccc(CCNCCCCCCNCCc2ccc(Cl)cc2)c(Cl)c1OC.Cl [TCMDC-131272]
HepG2 cells mean TOX50 (HepG2 cells): 5.54 µM | IC50 [2]: 820 nM | Gametocytes mean ATP inhibition at 2µM [3]: 24.24%

IC50 [1]: 9660 nM
SMILES: Br.CC(C)(Cc1ccc(Cl)cc1)NCCCCCCNCCc1ccc(O)c(O)c1 [TCMDC-131277]
HepG2 cells mean TOX50 (HepG2 cells): 10.97 µM | IC50 [2]: 1200 nM | Gametocytes mean ATP inhibition at 2µM [3]: 53.83%

IC50 [1]: 2150 nM
SMILES: Br.CCCCc1ccc(CCNCCCCCCNCCc2ccc(O)c(O)c2)cc1 [TCMDC-131281]
HepG2 cells mean TOX50 (HepG2 cells): 4.63 µM | IC50 [2]: 1070 nM | Gametocytes mean ATP inhibition at 2µM [3]: 60.07%

IC50 [1]: 1390 nM
SMILES: C[C@H](Cc1ccc(C[C@@H](C)NC[C@H](O)c2cccc(Cl)c2)cc1)NC[C@H](O)COc1ccccc1.Cl [TCMDC-131549]
HepG2 cells mean TOX50 (HepG2 cells): 5.19 µM | IC50 [2]: 1170 nM | Gametocytes mean ATP inhibition at 2µM [3]: 20.38%

IC50 [1]: 2050 nM
SMILES: C[C@H](Cc1ccc(CCc2ccc(C[C@@H](C)NC[C@H](O)c3cccc(Cl)c3)cc2)cc1)NC[C@H](O)c1cccc(Cl)c1.Cl [TCMDC-131551]
HepG2 cells mean TOX50 (HepG2 cells): 4.27 µM | IC50 [2]: 940 nM | Gametocytes mean ATP inhibition at 2µM [3]: 51.33%

IC50 [1]: 720 nM
SMILES: C[C@H](Cc1ccc(Oc2ccc(C[C@@H](C)NC[C@H](O)c3cccc(Cl)c3)cc2)cc1)NC[C@H](O)c1cccc(Cl)c1.Cl [TCMDC-131560]
HepG2 cells mean TOX50 (HepG2 cells): 2.04 µM | IC50 [2]: 560 nM | Gametocytes mean ATP inhibition at 2µM [3]: 70.55%

IC50 [1]: 960 nM
SMILES: C[C@H](Cc1ccc(OCCCCCOc2ccc(C[C@@H](C)NC[C@H](O)c3cccc(Cl)c3)cc2)cc1)NC[C@H](O)c1cccc(Cl)c1.Cl [TCMDC-131563]
HepG2 cells mean TOX50 (HepG2 cells): 2.11 µM | IC50 [2]: 190 nM | Gametocytes mean ATP inhibition at 2µM [3]: 21.40%

IC50 [1]: 2610 nM
SMILES: N=C(/N=C(/NCCCCCCN/C(=N/C(=N)NCc1ccc(Cl)c(Cl)c1)N1CCCCC1)N1CCCCC1)NCc1ccc(Cl)c(Cl)c1 [TCMDC-131816]
HepG2 cells mean TOX50 (HepG2 cells): 43.18 µM | IC50 [2]: 570 nM | Gametocytes mean ATP inhibition at 2µM [3]: 67.07%
